In patent US8263389B2, “Perifusion device” (Biorep Technologies, Inc., priority 2007, dated 2012):
Where no end group is shown, it is not given here.

Columns and labels:
Islet cells = test: insulin release by perifusion of islet cells after oxygen deprivation, measured by ELISA; type: cell-based; details: 11 mM glucose, GLP-1 in addition to 11 mM glucose, KCl
Protocol: Islet cells were compromised by depriving them from the normal oxygen concentration for 0.5, 2, 6, and 12 hours. After that, these islets were incubated in the perifusion system and exposed to substances that stimulate insulin release such as 11 mM of glucose, GLP-1 in addition to 11 mM of glucose, and potassium chloride (KCl).

human islets = test: glucagon-insulin release from in vitro perifused human islets; type: cell-based; details: alpha cells of perifused human islets
Protocol: FIG. 22 illustrates glucagon-insulin release from in vitro perifused human islets. This experiment was conducted to show the usefulness of the perifusion system in drug screening. Insulin and glucagon are hormones secreted from the beta and alpha cells of the islets of Langerhans. […] In the same way, any other compound's ability to influence the health or alter the behavior of the pancreatic islets can be assayed using the perifusion system of the invention.

[1] = control batch, normal culture conditions without oxygen deprivation
[2] = islets after twelve hours of incubation with low oxygen

Row | Molecule | insulin release response to stimulus (Islet cells; [1]) | insulin release response to stimulus (Islet cells; [2]) | glucagon release profile (human islets)
1 | [Cl-].[K+] [KCl, potassium chloride] | prominent response | very small | –
2 | GLP-1 (HAEGTFTSDVSSYLEGQAAKEFIAWLVKGR; ends and bridges not checked; UniProt P01275 98-127, looked up) | prominent response | little or no response | –
3 | kainates | – | – | stimulated the alpha cells to produce glucagon
